Reference: patent publication US8143307B2, “Benzothiophen-2-carbonylguanidine derivatives, preparation thereof, and pharmaceutical composition containing the same” (Korea Research Institute of Chemical Technology, priority 2004, dated 2012)

What was measured:
[1] = test system: isolated ischemic rat heart; assay: Cardioprotective effect in isolated ischemic rat heart model (Langendorff); conditions: 10 μM, 30 min global ischemia, 30 min reperfusion
Protocol: Male rats (300 450 g, the Korea Research Institute of Chemical Technology, Experimental Animal Lab) were anesthetized by intraperitoneal injection with sodium pentobarbital at a dose of 100 mg/kg and were intravenously administered with heparine at a dose of 1000 U/kg, followed by the excision of the heart. In detail, a tracheotomy was performed and a tracheal cannula (PE 240) was inserted into the trachea for subsequent artificial ventilation with room air using a rodent ventilator. […] A catheter tip manometer connected to a latex balloon filled with a mixture of ethanol and distilled water (1:1 v/v) was inserted via an incision in the left atrium into the left ventricle, and the intraventricular pressure thereof transmitted to the latex balloon was measured isovolumetrically with a transducer and recorded on a recording system (Linearcorder mark 8 WR 3500) with the aid of an amplifier (Plugsys bridge amplifier). After stabilizing the heart for 15 min, the balloon volume was adjusted to create a left ventricular end-diastolic pressure (LVEDP) of 5 mmHg during the initial baseline period. The volume of the balloon was maintained until the end of the experiment. Baseline heart contraction function, spontaneous heart rate (HR) and coronary flow (CF) were determined from the left ventricular contraction interval. The left ventricular developed pressure (LVDP), which is regarded as an index of contractile function of the isolated heart, was calculated by subtracting left ventricular end-diastolic pressure (LVEDP) from left ventricular peak systolic pressure (LVSP). In contrast to the heart in the body, the Langendorff heart cannot be measured for cardiac output and thus, RPP (rate-pressure product), which is an important indirect indicator for cardiac performance, was calculated by multiplying heart rate (HR) by LVDP. Throughout the experiment, the temperature of the heart was maintained constant by […] in a 37° C. physiological solution to which 95% O2/5% CO2 was continuously supplied. The heart thus stabilized was perfursed for 10 min with a solution of the compounds of the invention or control drugs in DMSO (dimethylsulfoxide) diluted with HBS (final DMSO conc. 0.04%), or with the solvent only (a negative control; 0.04% DMSO) and then measured again for contractile function, heart rate (HR) and coronary flow (CF). The supply of perfusates was completely stopped for 30 min in order to induce global ischemia in the heart, followed by reperfusion for 30 min. The indices (LVDP, HR, LVEDP, and CF) were measured again. After the reperfusion, the total level of lactate dehydrogenase (LDH) in the reperfusates was measured using a kit and taken as an index of ischemic myocardial injury. A negative control group was treated with the solvent only while cariporide was used as a positive control.

[2] = target: T1, Human NHE-1 (Homo sapiens, UniProt P19634); assay: Inhibitory effect on NHE-1 in PS120/NHE-1 cells (recovery from intracellular acidosis, BCECF fluorescence); assay type: cell-based; conditions: human NHE-1 expressed PS120 cells; concentration at which recovery from intracellular acidosis was 50% inhibited
T1 construct: expressed in transfected cells; host or cells: CCL39-derived PS120 cells (PS120/NHE-1)
T1 sequence (P19634 whole entry): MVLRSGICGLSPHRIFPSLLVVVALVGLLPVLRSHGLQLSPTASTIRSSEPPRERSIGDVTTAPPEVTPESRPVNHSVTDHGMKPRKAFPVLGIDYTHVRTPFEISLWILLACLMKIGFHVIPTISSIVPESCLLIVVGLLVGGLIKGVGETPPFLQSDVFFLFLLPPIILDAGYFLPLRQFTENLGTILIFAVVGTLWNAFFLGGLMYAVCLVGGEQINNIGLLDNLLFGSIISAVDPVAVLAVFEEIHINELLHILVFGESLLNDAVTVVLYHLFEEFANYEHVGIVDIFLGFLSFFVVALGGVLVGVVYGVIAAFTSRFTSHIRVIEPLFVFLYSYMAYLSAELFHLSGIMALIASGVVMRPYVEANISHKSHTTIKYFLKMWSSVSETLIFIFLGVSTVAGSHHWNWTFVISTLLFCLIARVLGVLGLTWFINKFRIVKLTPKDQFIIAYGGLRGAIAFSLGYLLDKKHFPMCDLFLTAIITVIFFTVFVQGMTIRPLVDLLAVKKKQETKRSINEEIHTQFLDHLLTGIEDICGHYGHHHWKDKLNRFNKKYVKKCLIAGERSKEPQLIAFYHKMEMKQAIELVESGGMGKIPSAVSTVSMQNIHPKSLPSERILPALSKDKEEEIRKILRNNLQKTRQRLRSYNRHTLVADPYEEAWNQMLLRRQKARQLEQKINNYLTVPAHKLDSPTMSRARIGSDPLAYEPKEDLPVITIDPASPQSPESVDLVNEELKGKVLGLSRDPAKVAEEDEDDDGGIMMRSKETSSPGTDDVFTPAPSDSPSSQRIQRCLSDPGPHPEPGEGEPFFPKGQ
Protocol: The benzothiophen-2-carbonylguanidine derivatives of the present invention were examined for NHE-1 inhibitory effect in cells according to the following procedure.
Human NHE-1 was expressed in CCL39-derived PS120 cells. These human NHE-1 expressed cells were cultured in DMEM (Dulbecco's modified Eagle's medium) supplemented with 10% fetal bovine serum, 1% penicillin/streptomycin (100× solution), 1% L-glutamine (200 mM aqueous solution). The PS120/NHE-1 cells grown in 100 mm dishes were treated with trypsin at 80-90% confluency, followed by washing with PBS (phosphate buffer saline) once, and then once with an Na-free buffer (138.2 mM Choline chloride, 4.9 mM KCl, […]. 2H2O, 1.2 mM MgSO4.7H2O, 1.2 mM KH2PO4, 15 mM D-glucose, 20 mM HEPES, at pH 7.4). After centrifugation, the pellet was suspended in an Na-free buffer containing 20 mM NH4Cl and 10 μM BCECF-AM [2′,7′-bis(2-carboxyethyl)-5,6-carboxy-fluorescein acetoxymethyl ester] and incubated at 37° C. for 30 min in a CO2 incubator. After being harvested by centrifugation, the PS120/NHE-1 cells were washed once with an Na-free buffer to remove both NH4Cl and extracellular BCECF-AM, suspended at a density of 2.5×10^4 cells/10 μl and stored at 4° C. in a dark room until reuse. In each well of 96-well microplates, 180 μl of HBS (137 mM NaCl, 4.9 mM KCl, 1.5 mM CaCl2. 2H2O, 1.2 mM MgSO4.7H2O, 1.2 mM KH2PO4, 15 mM D-glucose, 20 mM HEPES, at pH 7.4) and 10 μl of DMSO or 10 μl of a solution of the compound (0.03˜10 μM) of the present invention in DMSO were placed and well mixed, after which 10 μl aliquots of the intracellular acidosis-induced PS120/NHE-1 cells were added thereto. 4 min after the cell addition, fluorescence (excitation: 485/444 nm, emission: 535 nm) was measured in the GEMINI-XS Microplate Spectrofluorometer (Molecular Devices). The fluorescence measured was converted into pH values using a high-K^+/nigericin technique. The cells in which intracellular acidosis was induced with NH4Cl prepulses, were recovered to normal pH values through the operation of NHE-1. The inhibitory effect of the compound against NHE-1 was evaluated as concentrations at which the recovery from the intracellular acidosis to a normal state was 50% inhibited (IC50 values), with cariporide used as a control.

[3] = test system: in vivo ischemic rat heart model; assay: Cardioprotective effect on in vivo ischemic rat heart model (coronary occlusion/reperfusion, infarct size); conditions: 0.1 mg/kg intravenous, 45 min occlusion, 90 min reperfusion
Protocol: The cardioprotective effect of the benzothiophen-2-carbonylguanidine derivatives according to the present invention in in vivo ischemic hearts was judged with regard to their antischemic effects (myocardiac infarction reduction) on rats as follows.
Each male rat (300˜450 g, the Korea Research Institute of Chemical Technology, Experimental Animal Lab) was anesthetized by intraperitoneal injection with sodium pentobarbital at a dose of 75 mg/kg. Tracheotomy was performed and a tube was inserted into the trachea for subsequent artificial ventilation with a stroke volume of 10 ml/kg and a respiratory rate of 60 breaths/min. The femoral vein and the femoral artery were cannulated for the administration of the compounds and for the measurement of blood pressures, respectively. Meanwhile, the body temperature of the rats, an important factor to influence experimental results in the ischemic myocardiac injury model, was maintained constant at 37° C. using a homeothermic blanket control unit, with a body temperature-monitoring probe inserted into the rectum. Subsequently, rats were continuously measured for mean arterial blood pressure and heart rate HR throughout the experimental time period using a Statham P23XL pressure transducer (Grass Ins., Mass., USA) and an ECG/RATE Coupler (Hugo Sachs Electronic, Germany), respectively, with all continuous changes thereof recorded by Graphtec Linearcorder WR 3310 (Hugo Sachs Electronic).
The left coronary artery was occluded according to Selye H.'s method. In detail, after the chest of each rat was partially opened by left thoracotomy, the middle finger of the left hand was pressed against the right side of the chest of the rat to thrust out the heart which was then slightly fixed with the forefinger and the thumb of the same hand. Then, immediately after the left anterior descending coronary artery (LAD) was sutured with a 5-0 silk ligature, the heart was repositioned back in the thoracic cavity with both ends of the suture positioned outside. The ends of the suture were threaded through a PE tube (PE100, 2.5 cm) and allowed to stand for 20 min for stabilization. Through the cannula inserted into the femoral vein, a vehicle or the compounds of the invention were administered and 30 min was needed for sufficient effects of the administered compounds. Cariporide was used as a control. The ends of the suture threaded through the PE tube were pulled taut with hemostatic forceps to vertically press the PE tube against the coronary artery. After occlusion for 45 min, the hemostatic forceps were removed and reperfusion was conducted for 90 min.
The coronary artery was reoccluded in the same manner as described above, followed by the intravenous injection of 2 ml of 1% Evans blue. The intravenous injection of an excess of pentobarbital killed the rats, from which the hearts were then excised. The left ventricle was removed alone from the isolated heart and transected from the cardiac apex into 5 or 6 slices. Each slice was weighed. The image of each of the heart slices was captured using a Hi-scope, a compact vision system, and analyzed for blue-stained normal areas and non-stained areas with an image analyzing program (Image Pro Plus). In each slice, the area at risk (AAR) was calculated by multiplying the ratio of the non-stained area to the total area of the slice with the weight of the slice. Sum of the individual area at risk (AAR) for each slice was divided by the total weight of the left ventricle to obtain AAR (%) according to the following mathmatical formula 1.
Separately, the heat slices were incubated in 1%. 2,3,5-triphenyltetrazolium chloride (TTC) phosphate buffer (pH 7.4), 37° C., for 15 min and fixed in 10% formalin for 20˜24 hours. In the normal area of the tissue, 2,3,5-triphenyltetrazolium chloride was reduced by the myocardial dehydrogenase in the presence of the cofactor NADH to form formazan dye, which appeared as a brick-red color. […]

| Compound | LVEDP (left ventricular end-diastolic pressure) [1] [mmHg] | RPP (rate-pressure product (LVDP × HR) % relative to the value before ischemia induction) [1] [%] | IC50 [2] [nM] | LDH (free LDH level upon reperfusion) [1] [u/g] | Myocardiac infarction rate (IS/AAR, %) [3] [%] |
| --- | --- | --- | --- | --- | --- |
| CS(=O)(=O)O.NC(N)=NC(=O)c1cc2c(Br)cccc2s1 [Example 1, (4-Bromobenzothiophene-2-Carbonyl)Guanidine Methanesulfonate] | 34.0 | 54.7 | 200 |  |  |
| CS(=O)(=O)O.NC(N)=NC(=O)c1cc2c(-c3ccc(F)c(Cl)c3)cccc2s1 [Example 23, [4-(3-Chloro-4-Fluorophenyl)Benzothiophene-2-Carbonyl]Guanidine Methanesulfonate] | 68.0 | 5.9 | 2480 | 8.8 |  |
| CS(=O)(=O)O.Cc1ccc2sc(C(=O)N=C(N)N)cc2c1C [Example 47, (4,5-Dimethylbenzothiophene-2-Carbonyl)Guanidine Methanesulfonate] | 25.0 | 59.3 | 750 | 21.2 |  |
| CS(=O)(=O)O.NC(N)=NC(=O)c1cc2c(F)cccc2s1 [Example 33, (4-Fluorobenzothiophene-2-Carbonyl)Guanidine Methanesulfonate] | 37.7 | 46.6 | 1730 | 7.0 |  |
| CS(=O)(=O)O.NC(N)=NC(=O)c1cc2c(C(F)(F)F)cccc2s1 [Example 43, (4-Trifluoromethylbenzothiophene-2-Carbonyl)Guanidine Methanesulfonate] | 5.8 | 80.6 | 400 | 5.2 | 44.8 |
| CS(=O)(=O)O.NC(N)=NC(=O)c1cc2c([N+](=O)[O-])cccc2s1 [Example 39, (4-Nitrobenzothiophene-2-Carbonyl)Guanidine Methanesulfonate] | 11.3 | 73.3 | 2340 | 10.8 |  |
| CS(=O)(=O)O.NC(N)=NC(=O)c1cc2c(Cl)cccc2s1 [Example 32, (4-Chlorobenzothiophene-2-Carbonyl)Guanidine Methanesulfonate] | 25.3 | 60.8 | 200 | 8.8 |  |
| CS(=O)(=O)O.Cc1cccc2sc(C(=O)N=C(N)N)cc12 [Example 35, (4-Methylbenzothiophene-2-Carbonyl)Guanidine Methanesulfonate] | 38.0 | 40.4 | 480 |  |  |
| C=Cc1cccc2sc(C(=O)N=C(N)N)cc12.CS(=O)(=O)O [Example 36, (4-Vinylbenzothiophene-2-Carbonyl)Guanidine Methanesulfonate] | 42.0 | 51.0 | 310 | 13.1 |  |
| CS(=O)(=O)O.Cc1ccc2sc(C(=O)N=C(N)N)cc2c1Br [Example 45, (4-Bromo-5-Methylbenzothiophene-2-Carbonyl)Guanidine Methanesulfonate] | 41.8 | 50.4 | 290 | 22.5 |  |
| N=C(N)NC(=O)c1cc2c(I)cccc2s1 [Example 34, (4-Iodobenzothiophene-2-Carbonyl)Guanidine Methanesulfonate] | 19.0 | 65.8 | < 500 | 7.1 |  |
| CS(=O)(=O)O.NC(N)=NC(=O)c1cc2c(-c3cc(Cl)cc(Cl)c3)cccc2s1 [Example 19, [4-(3,5-Dichlorophenyl)Benzothiophene-2-Carbonyl]Guanidine Methanesulfonate] | 64.4 | 19.1 | 680 |  |  |
